Columns and labels:
[1] = test system: Sommerweizens Sorte Botanicheskaya 4; experiment: field test of gametocidal activity (sterilisation of anthers); format: in vivo, Sommerweizen; conditions: V. Periode, 1%ige wäßrige Emulsion, 8 kg/ha; for Prozentsatz des Ansetzens der Körner bei freier Bestäubung: control = 100
From the text: (§1) Die gametozide Aktivität der erfindungsgemäßen Sterilisationsmittel war in Feldversuch in verschiedenen bodenklimatischen Zonen mit Teilstücken von 10 m^2 Größe in drei-- bis viermaliger Wiederholung nachgewiesen. Jedes Sterilisationsmittel wurde mindestens 5 Jahre lang geprüft.
(§2) Die Entwicklung der Perioden der Organogenese wird zytologisch überwacht. Die Behandlung von Pflanzen mit dem Sterilisationsmittel erfolgt am Anfang der fünften Periode der Organogenese nach Kupermann.
(§3) Mit dem Ahrenschieben verwirklicht man die Isolierung von Hauptähren und anderen Stockwerken in Pergamentbeuteln. Bei Weizen und Tritikale werden Einzelisolatoren verwendet. Bei Roggen schließt man je 1 Ähre von 5 bis 7 verschiedenen nebeneinander befindlichen Pflanzen in einen gemeinsamen Isolator ein. Bei Hirse wird jede Rispe getrennt isoliert. Der Sterilitätsprozentsatz (X) für Weizen, Roggen, Tritikale und Hirse wird nach der Formel [formula]
(§4) Samen von unbehandelten Kontrollpflanzen ermittelt.
(§5) Die Kornzahl in nicht isolierten Ähren von Kontrollpflanzen wird bedingt für 100% Ansetzen bei freier Bestäubung angenommen.
(§6) Um zuverlässige Angaben zu erhalten, verwendet man 20 bis 25 Isolatoren jeder Wiederholung für Weizen und Tritikale, 10 bis 15 Isolatoren jeder Wiederholung für Roggen und Hirse.
Pflanzen des Sommerweizens Sorte Botanicheskaya 4 werden in der V. Periode der Organogenese (nach kupermann) mit einer l%igen wäßrigen Emulsion von Phthalsäuredibutylester, Phthalsauredipropylester, Natriumsalz der 2-Methyl-3-zyklo- hexenkarbonsäure, 2-Methyl-3-zyklohexenkarbonsäuremethyl- ester behandelt. Die Emulsion enthalt 0,01 Masse% Tetrahydrofuran und 0,1 Masse% C12-C14-Kalziumalkylbenzolsulfonat. Der Verbrauch an Präparat beträgt 8 kg/ha. Als Kontrolle dienen Pflanzen, behandelt mit einem Verdünner ohne Sterilisationsmittel

[2] = test system: Tritikale der Sorte PRAG-109; experiment: as above; format: in vivo; conditions: V. Periode, 1%ige wäßrige Emulsion, 10 kg/ha
From the text: as §1, §2, §3, §4, §5, §6
Pflanzen Tritikale der Sorte PRAG-109 werden in der V. Periode der Organogenese (nach Kupermann) mit einer 1%igen wäßrigen Emulsion von Phthalsäuredibutylester, Phthalsäurediäthylester, Phthalsäuredihexylester, Phthalsäurediisobutylester, Kaliumsalz der 2-Methyl-3-zyklohexenkarbon- säure, 2-Methyl-3-zyklohexenkarbonsäuremethylester behandelt. Die Emulsion enthält 0,01 Masse% Dimethylsulfoxid und 0,1 Masse% C12C14- Kalziumalkylbenzolsulfonat. Der Verbrauch an Präparat beträgt 10 kg/ha. Als Kontrolle dienen Pflanzen, behandelt mit einem Verdünner ohne Sterilisationsmittel. […]
In allen Fällen dienen als Kontrolle Pflanzen, behandelt mit einem Verdünner ohne Sterilisationsmittel. Die Prüfergebnisse sind in der Tabelle 20 angeführt. […] Periode der Organogenese erhalten.

[3] = test system: Sommerweizens Sorte Rodina; experiment: as above; format: in vivo, Sommerweizen; conditions: V. und VI. Periode, 1%ige wäßrige Emulsion, 6 kg/ha; for Prozentsatz des Ansetzens der Körner bei freier Bestäubung: control = 100
From the text: as §1, §2, §3, §4, §5, §6
Pflanzen des Sommerweizens Sorte Rodina werden in der V. und VI. Periode der Organogenese (nach Kupermann) mit einer l%igen wäßrigen Emulsion von Ammoniumsalz der 2-Methyl-3-zyklohexenkarbonsäure, Phthalsäuredihexylester, Phthalsäurediisobutylester behandelt. Die Emulsion enthält 0,01 Masse% Dodezysulfat und 0,1 Masse% C12-C14--Kalziumalkylbenzolsulfonat. Der Verbrauch an Präparat beträgt 6 kg/ha. Als Kontrolle dienen Pflanzen, behandelt mit einem Verdünner ohne Sterilisationsmittel.

[4] = test system: tetraploidem Roggen Sorte Ukrainskaya; experiment: as above; format: in vivo; conditions: V. Periode, wäßrige Emulsion (concentration not given), 6 kg/ha; for Prozentsatz des Ansetzens der Körner bei freier Bestäubung: control = 100
From the text: as §1, §2, §3, §4, §5, §6
Pflanzen von tetraploidem Roggen Sorte Ukrainskaya werden in der V. Periode der Organogenese (nach Kupermann) mit einer wäßrigen Emulsion von Ammoniumsalz der 2-Methyl-3--zyklohexenkarbonsäure, Phthalsäurediäthylester, Kaliumsalz der Benzoesäure, Phthalsäurediisobutylester behandelt. Die Emulsion enthält 0,01 Masse% Dimethylformamid und 0,1 Masse% C12-C14-Kalziumalkylbenzolsulfonat. Der Verbrauch an Präparat beträgt 6 kg/ha. Als Kontrolle dienen Pflanzen, behandelt mit einem Verdünner ohne Sterilisationsmittel. Die Prüfergebnisse sind in der Tabelle 11 angeführt. […] Periode der Organogenese erhalten.

[5] = test system: Sonnenblume Sorte Peredovik; experiment: field test of chemical sterilisation of sunflower pollen; format: in vivo; conditions: V. Periode, Präparat 1,0 Masse%, 6,0 kg/ha
From the text: as §1, §2
(§7) Zur Kontrolle der chemischen Sterilisation des Sonnenblumenpollens werden für jede Verbindung 45 behandelte Pflanzen jeder Wiederholung benutzt, wobei 15 Pflanzen zwecks Selbsbestäubung isoliert werden, Blutenkörbchen von 15 anderen Pflanzen mit einem Pollengemisch, gesammelt von 20 bis 25 behandelten isolierten Körbchen, bestäubt werden, und 15 Pflanzen für freie Bestäubung gelassen werden, damit das Ansetzen von Achänen mit dem Pollen der Vaterform kontrolliert werden kann.
(§8) Man beurteilt die Pollensterilität von Pflanzen der Sonnenblume nach der Pollenfertilität und -keimfahigkeit, nach den morphologischen Besonderheiten von Spermien und nach der Fähigkeit von Achänen zum Ansetzen bei der Bestäubung der behandelten isolierten Pflanzen mit dem Pollen der unbehandelten väterlischen Form. Die Läbensfähigkeit der Eizelle wird nach der Samenbildung bei behandelten Pflanzen bei freier Bestäubung der väterlichen Form bestimmt.
Pflanzen der Sonnenblume Sorte Peredovik werden in der V. […] Die Emulsion enthält 0,01 Masse% Dimethylsulfoxid und 0,1 Masse% C12-C14-Kalziumalkylbenzolsulfonat. Die Sonnenblume Linie VK-119 werden mit einer 0,2%igen wäßrigen Emulsion von Phthalsäuredibutylester, 0,1%igen wäßrigen Emulsion von Phthalsäurediäthylester, Kaliumsalz der 2-Methyl-3-zyklohexenkarbonsäure, 1%igen wäßrigen Emulsion von Natriumsalz der. 2-Methyl-3-zyklohexen- karbonsäure und 0,01%igen wäßrigen Emulsion von 2-Methyl--3-zyklohexenkarbonsäuremethylester behandelt. Die Emulsion enthält 0,01 Masse% Dimethylformamid und 0,1 Masse% C12-C14--Kalziumalkylbenzolsulfonat.
(§9) Als Kontrolle in allen Fällen dienen Pflanzen, behandelt mit einem Verdünner ohne Sterilisationsmittel.

Sonnenblume Linie VK-119 = experiment: as above; format: in vivo; conditions: Linie BK-119
From the text: as §1, §2, §7, §8
Pflanzen der Sonnenblume Sorte Peredovik werden in der V. Periode der Organogenese (nach Kupermann) mit einer 0,5%igen wäßrigen Emulsion von Phthalsäuredibutylester, Phthalsäurediäthylester, Kaliumsalz der 2-Methyl-3-zyklohexenkarbonsäu- re, Natriumsalz der 2-Methyl-3-zyklohexenkarbonsäure sowie mit einer 0,05%igen wäßrigen Emulsion von 2-Methyl-3-zyklo- hexenkarbonsäuremethylester behandelt. Die Emulsion enthält 0,01 Masse% Dimethylsulfoxid und 0,1 Masse% C12-C14-Kalziumalkylbenzolsulfonat. Die Sonnenblume Linie VK-119 werden mit einer 0,2%igen wäßrigen Emulsion von Phthalsäuredibutylester, 0,1%igen wäßrigen Emulsion von Phthalsäurediäthylester, Kaliumsalz der 2-Methyl-3-zyklohexenkarbonsäure, 1%igen wäßrigen Emulsion von Natriumsalz der. 2-Methyl-3-zyklohexen- karbonsäure und 0,01%igen wäßrigen Emulsion von 2-Methyl--3-zyklohexenkarbonsäuremethylester behandelt. Die Emulsion enthält 0,01 Masse% Dimethylformamid und 0,1 Masse% C12-C14--Kalziumalkylbenzolsulfonat.
as §9

[6] = Präparat 0,01 Masse%, 0,06 kg/ha

CCCCOC(=O)c1ccccc1C(=O)OCCCC [Beispiel 30, Phthalsäuredibutylester]
Kornzahl der Ähre bei freier Bestäubung [1]: 30,6 | Kornzahl der Ähre im Isolator [1]: 0,2 | Prozentsatz der Sterilität [1]: 99,4% | Prozentsatz des Ansetzens der Körner bei freier Bestäubung [1]: 81,8% | Kornzahl der Ähre bei freier Bestäubung [2]: 66,8 | Kornzahl der Ähre im Isolator [2]: 1,0 | Prozentsatz der Sterilität [2]: 98,4% | Prozentsatz des Ansetzens der Körner bei freier Bestäubung ([2]; control = 100): 96,8%

CCCOC(=O)c1ccccc1C(=O)OCCC [Beispiel 31, Phthalsauredipropylester]
Kornzahl der Ähre bei freier Bestäubung [1]: 31,5 | Kornzahl der Ähre im Isolator [1]: 0,5 | Prozentsatz der Sterilität [1]: 98,5% | Prozentsatz des Ansetzens der Körner bei freier Bestäubung [1]: 84,2%

CC1C=CCCC1C(=O)[O-].[Na+] (centres unmarked) [Beispiel 32, Natriumsalz der 2-Methyl-3-zyklo-hexenkarbonsäure]
Kornzahl der Ähre bei freier Bestäubung [1]: 32,9 | Kornzahl der Ähre im Isolator [1]: 1,0 | Prozentsatz der Sterilität [1]: 97,0% | Prozentsatz des Ansetzens der Körner bei freier Bestäubung [1]: 88,0%

COC(=O)C1CCC=CC1C (centres unmarked) [Beispiel 33, 2-Methyl-3-zyklohexenkarbonsäuremethyl-ester]
Kornzahl der Ähre bei freier Bestäubung [1]: 34,2 | Kornzahl der Ähre im Isolator [1]: 0,0 | Prozentsatz der Sterilität [1]: 100,0% | Prozentsatz des Ansetzens der Körner bei freier Bestäubung [1]: 91,4%

CC1C=CCCC1C(=O)O.N (centres unmarked) [Beispiel 34, Ammoniumsalz der 2-Methyl-3-zyklohexenkarbonsäure]
Kornzahl der Ähre bei freier Bestäubung [3]: 30,8 | Kornzahl der Ähre im Isolator [3]: 0,0 | Prozentsatz der Sterilität [3]: 100,0% | Prozentsatz des Ansetzens der Körner bei freier Bestäubung [3]: 84,1%

CCCCCCOC(=O)c1ccccc1C(=O)OCCCCCC [Beispiel 35, Phthalsäuredihexylester]
Kornzahl der Ähre bei freier Bestäubung [3]: 33,6 | Kornzahl der Ähre im Isolator [3]: 0,0 | Prozentsatz der Sterilität [3]: 100,0% | Prozentsatz des Ansetzens der Körner bei freier Bestäubung [3]: 91,8%

CC(C)COC(=O)c1ccccc1C(=O)OCC(C)C [Beispiel 36, Phthalsäurediisobutylester]
Kornzahl der Ähre bei freier Bestäubung [3]: 31,7 | Kornzahl der Ähre im Isolator [3]: 0,0 | Prozentsatz der Sterilität [3]: 100,0% | Prozentsatz des Ansetzens der Körner bei freier Bestäubung [3]: 86,6%

CC1C=CCCC1C(=O)O (centres unmarked) [Beispiel 56, Ammoniumsalz der 2-Methyl-3--zyklohexenkarbonsäure]
Kornzahl der Ähre bei freier Bestäubung [4]: 32,1 | Kornzahl der Ähre im Isolator [4]: 0,0 | Prozentsatz der Sterilität [4]: 100,0% | Prozentsatz des Ansetzens der Körner bei freier Bestäubung [4]: 87,2%

CCOC(=O)c1ccccc1C(=O)OCC [Beispiel 57, Phthalsäurediäthylester]
Kornzahl der Ähre bei freier Bestäubung [4]: 30,7 | Kornzahl der Ähre im Isolator [4]: 0,0 | Prozentsatz der Sterilität [4]: 100,0% | Prozentsatz des Ansetzens der Körner bei freier Bestäubung [4]: 83,4%

O=C(O)c1ccccc1 [Beispiel 58, Kaliumsalz der Benzoesäure]
Kornzahl der Ähre bei freier Bestäubung [4]: 35,8 | Kornzahl der Ähre im Isolator [4]: 4,2 | Prozentsatz der Sterilität [4]: 85,0% | Prozentsatz des Ansetzens der Körner bei freier Bestäubung [4]: 97,3%

CC(C)COC(=O)c1ccccc1C(=O)OCC(C)C [Beispiel 59, Phthalsäurediisobutylester]
Kornzahl der Ähre bei freier Bestäubung [4]: 34,7 | Kornzahl der Ähre im Isolator [4]: 0,0 | Prozentsatz der Sterilität [4]: 100,0% | Prozentsatz des Ansetzens der Körner bei freier Bestäubung [4]: 94,2%

CCCCOC(=O)c1ccccc1C(=O)OCCCC [Beispiel 103, Phthalsäuredibutylester]
Ansetzen der Achänen bei freier Bestäubung [5]: 82,3 | Prozentsatz der Sterilität [5]: 100,0%

CCOC(=O)c1ccccc1C(=O)OCC [Beispiel 104, Phthalsäurediäthylester]
Ansetzen der Achänen bei freier Bestäubung [5]: 80,0 | Prozentsatz der Sterilität [5]: 100,0%

CCCCOC(=O)c1ccccc1C(=O)OCCCC [Beispiel 108, Phthalsäuredibutylester]
Ansetzen der Achänen bei freier Bestäubung (Sonnenblume Linie VK-119; Präparat 0,2 Masse%, 1,2 kg/ha): 83,5 | Prozentsatz der Sterilität (Sonnenblume Linie VK-119; Präparat 0,2 Masse%, 1,2 kg/ha): 100,0%

CCOC(=O)c1ccccc1C(=O)OCC [Beispiel 109, Phthalsäurediäthylester]
Ansetzen der Achänen bei freier Bestäubung (Sonnenblume Linie VK-119; Präparat 0,1 Masse%, 0,6 kg/ha): 82,5 | Prozentsatz der Sterilität (Sonnenblume Linie VK-119; Präparat 0,1 Masse%, 0,6 kg/ha): 100,0%

CC1C=CCCC1C(=O)O (centres unmarked) [Beispiel 110, Kaliumsalz der 2-Methyl-3-zyklohexenkarbonsäure]
Ansetzen der Achänen bei freier Bestäubung (Sonnenblume Linie VK-119; Präparat 0,1 Masse%, 0,6 kg/ha): 85,5 | Prozentsatz der Sterilität (Sonnenblume Linie VK-119; Präparat 0,1 Masse%, 0,6 kg/ha): 100,0%

CC1C=CCCC1C(=O)O (centres unmarked) [Beispiel 111, Natriumsalz der. 2-Methyl-3-zyklohexen-karbonsäure]
Ansetzen der Achänen bei freier Bestäubung (Sonnenblume Linie VK-119; Präparat 1,0 Masse%, 6,0 kg/ha): 85,0 | Prozentsatz der Sterilität (Sonnenblume Linie VK-119; Präparat 1,0 Masse%, 6,0 kg/ha): 100,0%

COC(=O)C1CCC=CC1C (centres unmarked) [Beispiel 112, 2-Methyl--3-zyklohexenkarbonsäuremethylester]
Ansetzen der Achänen bei freier Bestäubung (Sonnenblume Linie VK-119; [6]): 85,0 | Prozentsatz der Sterilität (Sonnenblume Linie VK-119; [6]): 100,0%
